Among the data in BindingDB's records for doi:10.1016/0960-894X(95)00199-4 (1995) are IC50 values, retold here.

Structures are written as SMILES.

Target in the first assay: not listed separately
The experiment in a line: Compound was evaluated for the inhibition of platelet aggregation, assessed turbidimetrically in citreated human platelet rich plasma (PRP).
What is called IC50 is the concentration that gives 50% inhibition. The molecule `O=C(O)CC/C=C\CC1=CCC[C@@H]1NS(=O)(=O)c1ccc(Cl)cc1` had an IC50 of 1.9 µM. In other words, the single-digit micromolar range.
Take `O=C(O)COCCCCC1=CCC[C@@H]1NS(=O)(=O)c1ccc(F)cc1F`: the IC50 was 1.8 µM.
With `Cc1ccc(S(=O)(=O)NC[C@H]2CC[C@@H](F)[C@@H]2C/C=C\CCC(=O)O)cc1`, the IC50 worked out at 1.9 µM.
Same read-out and setting: the value for `O=C(O)CCC/C=C\C[C@H]1[C@H](F)CC[C@@H]1NS(=O)(=O)c1ccc(Cl)c(Cl)c1` was 0.63 µM.
Same read-out and setting: the value for `O=C(O)CC/C=C\C[C@H]1[C@H](F)CC[C@@H]1NS(=O)(=O)c1ccc(Cl)c(Cl)c1` was 1.7 µM; that for `O=C(O)CCC/C=C\C[C@H]1[C@H](F)CC[C@@H]1NS(=O)(=O)c1ccccc1` was 1.1 µM; that for `O=C(O)COCCCCC1=CCC[C@@H]1NS(=O)(=O)c1ccccc1[N+](=O)[O-]` was 1.9 µM.
With `O=C(O)CC/C=C\C[C@@H]1[C@@H](CNS(=O)(=O)c2ccc(F)cc2)CC[C@@H]1F`, the IC50 was 0.65 µM.
For `O=C(O)CC/C=C\C[C@H]1[C@H](F)CC[C@@H]1NS(=O)(=O)c1ccccc1`, the IC50 is 2 µM.
Same read-out and setting: the value for `O=C(O)CC/C=C\CC1=CCC[C@@H]1NS(=O)(=O)c1ccccc1` was 2.2 µM; that for `O=C(O)CCC/C=C\C[C@H]1[C@H](F)CC[C@@H]1NS(=O)(=O)c1ccc(Cl)cc1` was 0.07 µM; that for `O=C(O)CC/C=C\CC1=CCC[C@@H]1NS(=O)(=O)c1ccc(F)cc1` was 1.3 µM.
In turn, `O=C(O)CCC/C=C\C[C@@H]1[C@@H](CNS(=O)(=O)c2ccc(F)cc2)CC[C@H]1F` had an IC50 of 2 µM.
Same read-out and setting: the value for `O=C(O)CCCCCC[C@@H]1[C@@H](CNS(=O)(=O)c2ccc(F)cc2)CC[C@H]1F` was 6 µM; that for `O=C(O)COCCCC[C@H]1[C@H](F)CC[C@@H]1NS(=O)(=O)c1ccccc1[N+](=O)[O-]` was 5.5 µM; that for `O=C(O)CC/C=C/C[C@H]1[C@H](F)CC[C@@H]1NS(=O)(=O)c1ccc(F)cc1F` was 1.6 µM.
On the same count and under the same terms, the value for `O=C(O)CCC/C=C\CC1=CCC[C@@H]1NS(=O)(=O)c1ccccc1` was 2.3 µM.
Take `O=C(O)COCCCCC1=CCC[C@@H]1NS(=O)(=O)c1ccccc1`: half-maximal inhibition (IC50) was put at 2 µM. The IC50 values of the last two molecules are within 1.5-fold of each other.
Still for that read-out and setting: to `O=C(O)CC/C=C\C[C@@H]1[C@@H](CNS(=O)(=O)c2ccc(Cl)cc2)CC[C@H]1F` belongs 1.8 µM; to `O=C(O)CCCCC[C@@H]1[C@@H](CNS(=O)(=O)c2ccc(F)cc2)CC[C@H]1F`, 4.7 µM; to `O=C(O)CCC/C=C\CC1=CCC[C@@H]1CNS(=O)(=O)c1ccc(F)cc1`, 1.7 µM.
Still for that read-out and setting: the value for `O=C(O)CC/C=C\CC1=CCC[C@@H]1NS(=O)(=O)c1ccc(Cl)c(Cl)c1` was 1.9 µM; that for `O=C(O)CC/C=C\C[C@H]1[C@H](F)CC[C@@H]1NS(=O)(=O)c1ccccc1[N+](=O)[O-]` was 0.56 µM; that for `O=C(O)CC/C=C\C[C@H]1[C@H](F)CC[C@@H]1NS(=O)(=O)c1ccc(Cl)cc1` was 0.21 µM.
The same measure, in the same setting: the value for `O=C(O)COCCCC[C@@H]1[C@@H](CNS(=O)(=O)c2ccc(F)cc2)CC[C@H]1F` was 0.65 µM.
In the case of `O=C(O)COCCCCC1=CCC[C@@H]1NS(=O)(=O)c1ccc(Cl)c(Cl)c1`, the IC50 amounted to 1.9 µM. This IC50 is about 2.9-fold higher than that of the molecule before.
Still for that read-out and setting: to `O=C(O)CCCCCCC1=CCC[C@@H]1NS(=O)(=O)c1ccc(F)cc1` belongs 0.62 µM.
`O=C(O)COCCCC[C@H]1[C@H](F)CC[C@@H]1NS(=O)(=O)c1ccccc1` had an IC50 of 1.7 µM.
Molecule `O=C(O)COCCCC[C@H]1[C@H](F)CC[C@@H]1NS(=O)(=O)c1ccc(F)cc1` came in with an IC50 of 1.8 µM.
With `Cc1ccc(S(=O)(=O)N[C@H]2CCC=C2C/C=C\CCCC(=O)O)cc1`, inhibition was half-maximal at 0.25 µM (IC50).
Same read-out and setting: to `O=C(O)CC/C=C\C[C@H]1[C@H](F)CC[C@@H]1NS(=O)(=O)c1ccc(F)cc1` belongs 0.75 µM.
On the same count and under the same terms, the value for `O=C(O)COCCCCC1=CCC[C@@H]1NS(=O)(=O)c1ccc(F)cc1` was 2 µM; that for `O=C(O)CCC/C=C\CC1=CCC[C@@H]1NS(=O)(=O)c1ccc2ccccc2c1` was 1.9 µM; that for `O=C(O)CCC/C=C\CC1=CCC[C@@H]1NS(=O)(=O)c1cccc2cccnc12` was 2 µM.
Still for that read-out and setting: the value for `Cc1ccc(S(=O)(=O)N[C@H]2CC[C@@H](F)[C@@H]2CCCCOCC(=O)O)cc1` was 1.8 µM.
As for `O=C(O)CCCCCC[C@H]1[C@H](F)CC[C@@H]1NS(=O)(=O)c1ccc(F)cc1`, the 50% inhibitory concentration (IC50) was determined as 2.4 µM.
Turning to `O=C(O)CCC/C=C\CC1=CCC[C@@H]1NS(=O)(=O)c1ccccc1[N+](=O)[O-]`, it took 0.68 µM to reach half-maximal inhibition (IC50).
The molecule `O=C(O)CCC/C=C\C[C@H]1[C@H](F)CC[C@@H]1NS(=O)(=O)c1ccccc1[N+](=O)[O-]` had an IC50 of 1.8 µM. Compared with the last molecule, the IC50 is about 2.6-fold higher.
On the same count and under the same terms, the value for `Cc1ccc(S(=O)(=O)N[C@H]2CCC=C2CCCCOCC(=O)O)cc1` was 1.9 µM; that for `O=C(O)COCCCC[C@H]1[C@H](F)CC[C@@H]1NS(=O)(=O)c1ccc(F)cc1F` was 1.8 µM; that for `O=C(O)CC/C=C\CC1=CCC[C@@H]1NS(=O)(=O)c1ccccc1[N+](=O)[O-]` was 0.6 µM.
The molecule `O=C(O)CCC/C=C\C[C@H]1[C@H](F)CC[C@@H]1NS(=O)(=O)c1ccc2ccccc2c1` registered an IC50 of 0.2 µM. This IC50 lies about 3-fold lower than the previous one.
On to `O=C(O)CC/C=C\CC1=CCC[C@@H]1CNS(=O)(=O)c1ccc(F)cc1`, for which the IC50 stood at 0.6 µM. Compared with the last molecule, the IC50 is about 3-fold higher.
Still for that read-out and setting: the value for `O=C(O)CCC/C=C\C[C@H]1[C@H](F)CC[C@@H]1NS(=O)(=O)c1ccc(F)cc1F` was 0.2 µM; that for `O=C(O)CC/C=C\CC1=CCC[C@@H]1NS(=O)(=O)c1ccc(F)cc1F` was 20 µM.
The same measure, in the same setting: to `O=C(O)COCCCCC1=CCC[C@@H]1CNS(=O)(=O)c1ccc(F)cc1` belongs 0.2 µM.
The molecule `O=C(O)CCC/C=C\CC1=CCC[C@@H]1NS(=O)(=O)c1ccc(F)cc1` came in with an IC50 of 4.4 µM.
Turning to `Cc1ccc(S(=O)(=O)N[C@H]2CC[C@@H](F)[C@@H]2C/C=C\CCCC(=O)O)cc1`, the IC50 came to 0.26 µM.
As to `Cc1ccc(S(=O)(=O)N[C@H]2CCC=C2C/C=C\CCC(=O)O)cc1`, the IC50 was 1.8 µM.
`Cc1ccc(S(=O)(=O)N[C@H]2CC[C@@H](F)[C@@H]2C/C=C\CCC(=O)O)cc1`: the IC50 is 1.9 µM.

The target in a further assay is T1, Thromboxane A2 receptor (Homo sapiens, UniProt P21731).
T1 sequence (P21731 whole entry): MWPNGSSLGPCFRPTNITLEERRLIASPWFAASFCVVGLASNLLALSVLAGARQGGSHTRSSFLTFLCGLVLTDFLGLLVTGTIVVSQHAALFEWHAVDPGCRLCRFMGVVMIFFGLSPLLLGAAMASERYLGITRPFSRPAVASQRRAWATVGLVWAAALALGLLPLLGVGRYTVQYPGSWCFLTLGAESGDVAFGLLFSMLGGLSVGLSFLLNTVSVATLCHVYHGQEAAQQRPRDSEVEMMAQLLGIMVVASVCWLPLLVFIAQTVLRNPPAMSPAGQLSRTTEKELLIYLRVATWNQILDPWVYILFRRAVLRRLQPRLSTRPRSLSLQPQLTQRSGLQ
Description: Compound was evaluated for the inhibition of platelet aggregation, assessed turbidimetrically in citreated human platelet rich plasma (PRP).
Take `O=C(O)CCC/C=C\C[C@H]1[C@H](F)CC[C@@H]1NS(=O)(=O)c1ccc(F)cc1`: the IC50 amounted to 0.54 µM. That is a sub-micromolar value.
Still for that read-out and setting: the value for `O=C(O)CC/C=C\C[C@@H]1[C@@H](CNS(=O)(=O)c2ccc(F)cc2)CC[C@H]1F` was 1.9 µM; that for `O=C(O)CCC/C=C\C[C@H]1[C@H](F)CC[C@@H]1NS(=O)(=O)C1=C2N=CC=CC2CC=C1` (stereo partly drawn) was 2 µM.
